{"source": "patent US4626271A", "about": "“Cyanobacterin herbicide” (priority 1985, dated 1986)", "key": {"Setaria viridis": {"system": "Setaria viridis", "test": "Spray treatment of green foxtail", "assay_type": "in vivo", "details": "for treated plant dry weight: fifteenth day", "protocol": "(§1) 10 mg of cyanobacterin dissolved in lml. of ethyl ether was mixed with 0.1 ml of the Science \"Sticker\" of Science Products, Co., which contains about 77% Triton B-1956 brand surfactant. 10 ml of water was added and mixed. After mixing for about 30 minutes to allow the ether to evaporate, the composition was ready to apply to plants.\n(§2) A variety of green plants were treated with a cyanobacterin solution prepared in accordance with Example I above. An atomizer was used to spray the plants with a fine spray. Before placing the fluid into an atomizer, the solution was measured and then remeasured after application on the plants.\n(§3) A control solution of 0.1 ml of sticker-ether in 10 ml of distilled water was applied to the control plants. These plants were treated in the same manner as in the cyanobacterin application and measured in the same way. Plants were cut off at the soil line and dried for 16 hours at 110° C.\nSetaria viridis plants were grown at a rate of over 10 per pot. A total of 5 control pots were used and 5 cyanobacterin treated pots were utilized. Two concentrations of cyanobacterin were utilized. In the first group 0.5 milligrams of cyanobacterin was applied to plants 8 days after germination. The control plant dry weight on the fifteenth day after cutting was 365.8 milligrams and the cyanobacterin treated plant dry weight was 176.3 milligrams. A second group of plants was treated with 2.8 milligrams of cyanobacterin 7 days after germination."}, "Polygonium convolvulus": {"system": "Polygonium convolvulus", "test": "Spray treatment of wild buckwheat", "assay_type": "in vivo", "details": "for treated plant dry weight: fifteenth day", "protocol": "as §1, §2, §3\nPolygonium convolvulus plants were raised at a rate of over 10 plants per pot. Five control pots were used and 5 pots were treated with the cyanobacterin containing compound of the invention.\nThe first plants treated were treated 2 days after germination with 0.29 milligrams of the cyanobacterin. The control plant dry weight at the fifteenth day was 92.4 milligrams and the cyanobacterin treated dry weight was 59.1 milligrams. The second group of plants were treated 4 days after germination with 0.5 milligrams of cyanobacterin."}, "Rumex crispus": {"system": "Rumex crispus", "test": "Spray treatment of curled dock", "assay_type": "in vivo", "details": "for treated plant dry weight: fifteenth day", "protocol": "as §1, §2, §3\nRumex crispus was grown at a rate of 10 plants or more per pot. A total of 5 control pots were used and 5 pots were treated with the cyanobacterin containing compound of Example I. Seven days after germination the plants were treated with 1.45 milligrams of cyanobacterin. […] By the 9th day, half the plants were dead and half were chlorotic. […] The control plant dry weight at the fifteenth day was 453.3 milligrams and the cyanobacterin dry weight was 93.1 milligrams.\nCurled dock plants were also treated with 0.5 milligrams of cyanobacterin. The plants were treated with the cyanobacterin compound 8 days after germination. On the 7th day after treatment, many of the plants were dead and others were chlorotic."}, "Application to the soil": {"test": "Application to the soil", "assay_type": "in vivo", "text": "(§4) Cyanobacterin, when applied to the soil had no effect. […] Also, it may not be transported through the root vascular system. The Hill reaction is inhibited by cyanobacterin as shown by the use of photosynthetically active pea chloroplasts."}, "photosystem II": {"system": "photosystem II", "test": "Hill reaction / oxygen evolution in pea chloroplasts", "assay_type": "biochemical", "text": "It is theorized that cyanobacterin acts on green plants by specifically binding to some component of the photosynthetic electron transport system.\nas §4"}, "[1]": {"system": "Pisum sativum, var. Little Marvel", "test": "Spray treatment of pea", "assay_type": "in vivo", "protocol": "as §1, §2, §3\nPisum sativum, var. Little Marvel, plants were tested at a rate of 1 and 2 plants per pot. With one plant per pot, a total of nine control plants were used and 12 cyanobacterin treated plants were utilized. With 2 plants per pot, one control plant was utilized and 2 cyanobacterin treated plants were utilized. The plants were treated 8 and 6 days after germination respectively, with the cyanobacterin compound of Example I. The pots containing 1 plant per pot were treated with 1.5 milligrams and the pots containing 2 plants were treated with 0.6 milligrams of the cyanobacterin compound. The control plant dry weight of a single plant per pot plants after the fifteen days of growth was 363.8 milligrams and 194.9 milligrams for the cyanobacterin treated plant dry weight."}, "[2]": {"system": "Zea Mays of the hybrid variety Goldencross Bantam", "test": "Spray treatment of sweet corn", "assay_type": "in vivo", "details": "1.0 milligrams, Example I composition", "protocol": "as §1, §2, §3\nZea Mays of the hybrid variety Goldencross Bantam was tested with one plant per pot. A total of nine control plants were used and 14 plants were treated with the cyanobacterin composition of Example I. The plants were treated once, 8 days after germination. After growing for a total of 15 days after treatment, the plants were cut off at the soil line and the dry weight was determined. A control plant dry weight was 227.4 milligrams and the cyanobacterin treated plant dry weight was 59.4 milligrams. The amount of cyanobacterin utilized was 1.0 milligrams."}, "Hydrophobicity": {"test": "Hydrophobicity", "assay_type": "physicochemical"}, "Avena fatua": {"system": "Avena fatua", "test": "Spray treatment of wild oats", "assay_type": "in vivo", "protocol": "as §1, §2, §3\nAvena fatua plants were grown at a rate of over 10 plants per pot. A total of 5 control pots were used and 5 cyanobacterin treated pots were utilized.\nThree separate concentrations of cyanobacterin were utilized. In group 1 the plants were treated 3 days after germination with 0.44 milligrams of the cyanobacterin. […] A second group were treated with 0.6 milligrams of cyanobacterin two weeks after germination. […] The third group of plants were treated with 1.05 milligrams of cyanobacterin 7 days after germination."}, "[3]": {"system": "Lemna gibba, L.minor and Lemna 6746 (Duckweed)", "test": "Use against aquatic plants (frond multiplication, toxicity)", "assay_type": "in vivo", "protocol": "The effect of cyanobacterin was initially tested on the aquatic angiosperms, Lemna gibba, L.minor and Lemna 6746 (Duckweed). Cyanobacterin stopped frond multiplication at a minimum dose of 0.5 μg per ml of growth medium (1.1 μM). The plants recovered after about 7-12 days. Presumably, this is due to degradation of the cyanobacterin over time which drops the dosage below the minimum. At a concentration of 1.0 μg/ml (2.3 μM), cyanobacterin is toxic to Lemna. The plants generally appear normal for 10-15 days after which the roots fall off and the leaves become chlorotic."}, "[4]": {"test": "Herbicidal effect, amount relative to plant dry weight", "assay_type": "in vivo", "details": "by dry weight", "text": "The composition may be formulated from high purity cyanobacterin or from crude extracts obtained from the blue-green algae since high purity is not required. […] Additionally, the composition may be formulated from a synthetic cyanobacterin, such as the racemic mixture described by T. T. Jong et al, \"Total synthesis and X-ray structure determination of cyanobacterin\", J. Org. Chem. 49:735-736(1984)."}, "cell growth": {"system": "cell growth", "test": "Biological activity / cell growth of the anhydro analog", "assay_type": "cell-based", "text": "The cyanobacterin used in this invention may be obtained from Scytonema hofmanni (UTEX 2349 University of Texas Collection, Austin, Tex.) cells. Cyanobacterin is a diaryl substituted gamma-ylidene, gamma-butyro lactone with a chlorine substituent on one of the aromatic rings. […] This compound results from dehydration of the parent compound: [drawing 1]\nIt has been postulated by the inventor that a hydrophilic constituent on the lactone ring is crucial to the activity of cyanobacterin and may be involved in protein binding."}, "[5]": {"system": "cyanobacterial spheroplast system", "test": "Activity in a cyanobacterial spheroplast system", "assay_type": "cell-based", "text": "(§5) Synthetic cyanobacterin such as the racemic mixture prepared by Jong T. T. et al in J. Org."}, "whole cell growth": {"system": "whole cell growth", "test": "Whole cell growth measurements, long term studies", "assay_type": "cell-based", "text": "as §5"}}, "note": "Where “and” joins values, the source holds several entries; their conditions need not be identical. Equal values may be shown once.", "data": [{"smiles": "COc1ccc(/C=C2\\OC(=O)C(Cc3cc(Cl)c4c(c3)OCO4)C2(O)C(C)C)cc1", "note": "(stereo not drawn) [cyanobacterin]", "values": [{"measurement": "treated plant dry weight", "setting": "Setaria viridis; 0.5 milligrams, 8 days after germination, control 365.8 milligrams", "value": 176.3, "unit": "milligrams"}, {"measurement": "plant condition at approximately the 9th day after treatment", "setting": "Setaria viridis; 0.5 or 2.8 milligrams", "value": "approximately half of the plants had died"}, {"measurement": "treated plant dry weight", "setting": "Setaria viridis; 2.8 milligrams, 7 days after germination, control 411.7 milligrams", "value": 217.7, "unit": "milligrams"}, {"measurement": "treated plant dry weight", "setting": "Polygonium convolvulus; 0.29 milligrams, 2 days after germination, control 92.4 milligrams", "value": 59.1, "unit": "milligrams"}, {"measurement": "treated plant dry weight", "setting": "Polygonium convolvulus; 0.5 milligrams, 4 days after germination, control 157.8 milligrams", "value": 59.1, "unit": "milligrams"}, {"measurement": "plant condition by the 15th day", "setting": "Polygonium convolvulus; either concentration (0.29 or 0.5 milligrams)", "value": "Only a few of the cyanobacterin treated plants were dead"}, {"measurement": "plant condition by the 15th day", "setting": "Rumex crispus; 0.5 milligrams", "value": "half of the plants were dead, one-quarter were chlorotic and one-quarter were large, green and healthy like the control"}, {"measurement": "treated plant dry weight", "setting": "Rumex crispus; 0.5 milligrams, 8 days after germination, control 451.9 milligrams", "value": 239.1, "unit": "milligrams"}, {"measurement": "plant condition by the 15th day", "setting": "Rumex crispus; 1.45 milligrams", "value": "all were dead except for a few"}, {"measurement": "treated plant dry weight", "setting": "Rumex crispus; 1.45 milligrams, seven days after germination, control 453.3 milligrams", "value": 93.1, "unit": "milligrams"}, {"measurement": "effect when applied to the soil", "setting": "Application to the soil", "value": "no effect"}, {"measurement": "electron flow from water to electron acceptors", "setting": "photosystem II", "value": "inhibits electron flow"}, {"measurement": "Hill reaction", "setting": "photosystem II; photosynthetically active pea chloroplasts", "value": "inhibited"}, {"measurement": "concentration that completely inhibits oxygen evolution", "setting": "photosystem II; photosynthetically active pea chloroplasts, in the presence of DCPIP", "value": 110, "unit": "nM"}, {"measurement": "plant condition on the 15th day", "setting": "[1]; 0.6 to 1.5 milligrams per plant", "value": "all of the cyanobacterin treated plants were dead"}, {"measurement": "treated plant dry weight", "setting": "[1]; 1 plant per pot, 1.5 milligrams, treated 8 days after germination, fifteen days of growth, control 363.8 milligrams", "value": 194.9, "unit": "milligrams"}, {"measurement": "treated plant dry weight", "setting": "[1]; 2 plants per pot, 0.6 milligrams, treated 6 days after germination, control 169.8 milligrams", "value": 101.4, "unit": "milligrams"}, {"measurement": "plant condition by the fifteenth day", "setting": "[2]", "value": "dead"}, {"measurement": "plant condition on the ninth day after treatment", "setting": "[2]", "value": "no new growth"}, {"measurement": "treated plant dry weight", "setting": "[2]; treated once 8 days after germination, 15 days after treatment, control 227.4 milligrams", "value": 59.4, "unit": "milligrams"}, {"measurement": "hydrophobicity", "setting": "Hydrophobicity", "value": "very hydrophobic"}, {"measurement": "treated plant dry weight", "setting": "Avena fatua; 0.44 milligrams, 3 days after germination, fifteen days after treatment, control 154.6 milligrams", "value": 115.5, "unit": "milligrams"}, {"measurement": "plant condition at the end of the experiment", "setting": "Avena fatua; 0.44 to 1.05 milligrams", "value": "stressed but overall were still green and growing"}, {"measurement": "treated plant dry weight", "setting": "Avena fatua; 0.6 milligrams, two weeks after germination, fifteen days after treatment, control 328.5 milligrams", "value": 79.5, "unit": "milligrams"}, {"measurement": "treated plant dry weight", "setting": "Avena fatua; 1.05 milligrams, 7 days after germination, fifteenth day, control 489.6 milligrams", "value": 155.8, "unit": "milligrams"}, {"measurement": "plant condition by 30 days", "setting": "[3]; 1.0 μg/ml or greater, purified cyanobacterin", "value": "most plants treated with 1.0 μg/ml or greater concentrations of purified cyanobacterin were dead"}, {"measurement": "time until plants recovered", "setting": "[3]; at minimum dose 0.5 μg per ml", "value": "7 to 12", "unit": "days"}, {"measurement": "minimal effective concentration", "setting": "[3]; in growth medium, read-out: minimum dose that stopped frond multiplication", "value": "0.5 µg/mL and 1.1 µM"}, {"measurement": "amount effective as a herbicide relative to plant dry weight", "setting": "[4]", "value": "one part of the cyanobacterin to 450 parts of the plant"}]}, {"smiles": "COc1ccc(/C=C2\\OC(=O)C(Cc3cc(Cl)c4c(c3)OCO4)=C2C(C)C)cc1", "note": "[anhydrocyanobacterin]", "values": [{"measurement": "biological activity", "setting": "cell growth", "value": "no biological activity"}, {"measurement": "effect on cell growth", "setting": "cell growth", "value": "no effect on cell growth"}]}, {"smiles": "COc1ccc(/C=C2\\OC(=O)C(Cc3cc(Cl)c4c(c3)OCO4)C2(O)C(C)C)cc1", "note": "(racemic) [Synthetic cyanobacterin]", "values": [{"measurement": "activity relative to cyanobacterin", "setting": "[5]", "value": "about half the activity of cyanobacterin"}, {"measurement": "activity relative to cyanobacterin", "setting": "whole cell growth", "value": "the same activity"}]}]}
